Laboratory results: patent US20150239889A1, “PYRAZOLOPYRIMIDINE COMPOUND” (MITSUBISHI TANABE PHARMA CORPORATION, priority 2012, published 2015)

Target: T1, human HIF-PHD2 (Homo sapiens, UniProt Q9GZT9)
T1 construct: purchased CrystalGenomics Ltd
Assay: HIF-PHD inhibition assay (fluorescence polarization), human HIF-PHD2
Assay type: biochemical
Conditions: 2-oxoglutaric acid 3.33 μmol/L
Summary of the method: (§1)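 Activity was derived as the fluorescence polarization (mP) after enzyme addition minus that measured before enzyme addition. Probe bore a 5′-fluoresceinamide (FAM) label with an aminocaproic acid (ACA) linker.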

T1 sequence (Q9GZT9 2-426 limits assumed): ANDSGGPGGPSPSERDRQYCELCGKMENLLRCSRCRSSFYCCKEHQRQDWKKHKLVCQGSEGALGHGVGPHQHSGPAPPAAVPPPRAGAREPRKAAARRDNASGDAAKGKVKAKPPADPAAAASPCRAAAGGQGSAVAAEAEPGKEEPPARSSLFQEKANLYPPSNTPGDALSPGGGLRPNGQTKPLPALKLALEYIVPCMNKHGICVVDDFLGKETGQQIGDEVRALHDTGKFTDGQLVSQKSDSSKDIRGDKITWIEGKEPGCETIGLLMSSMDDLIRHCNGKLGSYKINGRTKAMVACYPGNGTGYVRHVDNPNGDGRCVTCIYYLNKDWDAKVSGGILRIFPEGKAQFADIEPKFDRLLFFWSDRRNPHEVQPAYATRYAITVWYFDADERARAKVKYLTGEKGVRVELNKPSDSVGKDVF

SMILES	IC50 [nM]
O=C(O)c1cnn(-c2nc(O)c3c(cnn3CCC(c3ccccc3)c3ccccc3)n2)c1 [Example 134]	23
CC1(Cn2ncc3nc(-n4cc(C(=O)O)cn4)nc(O)c32)CCCCC1 [Example 157]	40
C[C@@H](c1ccc(-c2ccccc2F)cc1)n1ncc2nc(-n3cc(C(=O)O)cn3)nc(O)c21 [Example 112]	13
O=C(O)c1cnn(-c2nc(O)c3c(cnn3Cc3ccc(-c4cccc(C(F)(F)F)c4)cc3)n2)c1 [Example 65]	11
CC(C)(Cn1ncc2nc(-n3cc(C(=O)O)cn3)nc(O)c21)Oc1ccc(Cl)cc1 [Example 210]	21
Cc1nn(Cc2ccc(-c3ccccc3)cc2)c2c(O)nc(-n3cc(C(=O)O)cn3)nc12 [Example 228]	10
O=C(O)c1cnn(-c2nc(O)c3c(cnn3CC3(COc4ccc(Cl)cc4)CC3)n2)c1 [Example 198]	89
O=C(O)c1cnn(-c2nc(O)c3c(cnn3CCc3ccc(-c4ccccc4)cc3)n2)c1 [Example 130]	6
Cc1nn([C@@H](C)c2ccc(C(F)(F)F)cc2)c2c(O)nc(-n3cc(C(=O)O)cn3)nc12 [Example 446]	18
CCC(c1ccc(Cl)cc1)n1ncc2nc(-n3cc(C(=O)O)cn3)nc(O)c21 (single isomer, unassigned) [Example 323]	22
C[C@H]1CC[C@H](Cn2ncc3nc(-n4cc(C(=O)O)cn4)nc(O)c32)CC1 [Example 139]	30
Cc1nn(C[C@H]2CC[C@H](C(F)(F)F)CC2)c2c(O)nc(-n3cc(C(=O)O)cn3)nc12 [Example 474]	30
CCC(CC)Cn1nc(F)c2nc(-n3cc(C(=O)O)cn3)nc(O)c21 [Example 498]	49
O=C(O)c1cnn(-c2nc(O)c3c(cnn3Cc3ccc(-c4cccc(F)c4)cc3)n2)c1 [Example 63]	14
O=C(O)c1cnn(-c2nc(O)c3c(cnn3CC3CCN(c4ccc(C(F)(F)F)cc4)CC3)n2)c1 [Example 170]	19
O=C(O)c1cnn(-c2nc(O)c3c(cnn3CC3Cc4ccccc4C3)n2)c1 [Example 154]	29
C[C@@H](c1ccc2ccccc2c1)n1nc(F)c2nc(-n3cc(C(=O)O)cn3)nc(O)c21 [Example 442]	11
O=C(O)c1cnn(-c2nc(O)c3c(cnn3Cc3cc(C(F)(F)F)cc(Cl)c3F)n2)c1 [Example 4]	27
O=C(O)c1cnn(-c2nc(O)c3c(cnn3CCCOc3ccc4c(c3)CCCC4)n2)c1 [Example 188]	14
COc1cc(Cn2ncc3nc(-n4cc(C(=O)O)cn4)nc(O)c32)ccc1-c1ccccc1C [Example 98]	20
CC(C)(COc1ccc(Cl)cc1)Cn1ncc2nc(-n3cc(C(=O)O)cn3)nc(O)c21 [Example 197]	190

Target: T2, human HIF-PHD3 (Homo sapiens, UniProt Q9H6Z9)
T2 construct: purchased CrystalGenomics Ltd
T2 sequence (Q9H6Z9 whole entry): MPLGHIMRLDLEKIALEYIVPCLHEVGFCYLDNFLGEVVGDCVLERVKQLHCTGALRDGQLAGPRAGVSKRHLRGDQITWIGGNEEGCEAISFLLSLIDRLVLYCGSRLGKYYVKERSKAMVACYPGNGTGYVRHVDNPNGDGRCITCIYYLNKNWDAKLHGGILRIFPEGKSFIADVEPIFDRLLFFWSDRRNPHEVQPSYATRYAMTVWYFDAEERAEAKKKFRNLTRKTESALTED
Assay: HIF-PHD inhibition assay (fluorescence polarization), human HIF-PHD3
Assay type: biochemical
Conditions: 2-oxoglutaric acid 166 μmol/L
Summary of the method: as §1

SMILES	IC50 [nM]
O=C(O)c1cnn(-c2nc(O)c3c(cnn3CCC(c3ccccc3)c3ccccc3)n2)c1 [Example 134]	360
CC1(Cn2ncc3nc(-n4cc(C(=O)O)cn4)nc(O)c32)CCCCC1 [Example 157]	720
C[C@@H](c1ccc(-c2ccccc2F)cc1)n1ncc2nc(-n3cc(C(=O)O)cn3)nc(O)c21 [Example 112]	87
O=C(O)c1cnn(-c2nc(O)c3c(cnn3Cc3ccc(-c4cccc(C(F)(F)F)c4)cc3)n2)c1 [Example 65]	180
CC(C)(Cn1ncc2nc(-n3cc(C(=O)O)cn3)nc(O)c21)Oc1ccc(Cl)cc1 [Example 210]	220
Cc1nn(Cc2ccc(-c3ccccc3)cc2)c2c(O)nc(-n3cc(C(=O)O)cn3)nc12 [Example 228]	68
O=C(O)c1cnn(-c2nc(O)c3c(cnn3CC3(COc4ccc(Cl)cc4)CC3)n2)c1 [Example 198]	1200
O=C(O)c1cnn(-c2nc(O)c3c(cnn3CCc3ccc(-c4ccccc4)cc3)n2)c1 [Example 130]	130
Cc1nn([C@@H](C)c2ccc(C(F)(F)F)cc2)c2c(O)nc(-n3cc(C(=O)O)cn3)nc12 [Example 446]	480
CCC(c1ccc(Cl)cc1)n1ncc2nc(-n3cc(C(=O)O)cn3)nc(O)c21 (single isomer, unassigned) [Example 323]	300
C[C@H]1CC[C@H](Cn2ncc3nc(-n4cc(C(=O)O)cn4)nc(O)c32)CC1 [Example 139]	520
Cc1nn(C[C@H]2CC[C@H](C(F)(F)F)CC2)c2c(O)nc(-n3cc(C(=O)O)cn3)nc12 [Example 474]	190
CCC(CC)Cn1nc(F)c2nc(-n3cc(C(=O)O)cn3)nc(O)c21 [Example 498]	310
O=C(O)c1cnn(-c2nc(O)c3c(cnn3Cc3ccc(-c4cccc(F)c4)cc3)n2)c1 [Example 63]	110
O=C(O)c1cnn(-c2nc(O)c3c(cnn3CC3CCN(c4ccc(C(F)(F)F)cc4)CC3)n2)c1 [Example 170]	280
O=C(O)c1cnn(-c2nc(O)c3c(cnn3CC3Cc4ccccc4C3)n2)c1 [Example 154]	290
C[C@@H](c1ccc2ccccc2c1)n1nc(F)c2nc(-n3cc(C(=O)O)cn3)nc(O)c21 [Example 442]	360
O=C(O)c1cnn(-c2nc(O)c3c(cnn3Cc3cc(C(F)(F)F)cc(Cl)c3F)n2)c1 [Example 4]	780
O=C(O)c1cnn(-c2nc(O)c3c(cnn3CCCOc3ccc4c(c3)CCCC4)n2)c1 [Example 188]	540
COc1cc(Cn2ncc3nc(-n4cc(C(=O)O)cn4)nc(O)c32)ccc1-c1ccccc1C [Example 98]	190
CC(C)(COc1ccc(Cl)cc1)Cn1ncc2nc(-n3cc(C(=O)O)cn3)nc(O)c21 [Example 197]	760

System: Hep3B cells
Assay: EPO production assay (ELISA of culture supernatant)
Assay type: cell-based
Conditions: Homo sapiens, 3 μmol/L test compound, 48 hours, relative to control (0.1% DMSO), read-out: EPO production stimulation rate with 3 μmol/L test compound
Summary of the method: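 Hep3B cells (40000/well) switched to MEM with 0.5% FBS and treated with compound (0.1% DMSO) for 48 h at 37 °C. Supernatant EPO measured by ELISA; value is fold stimulation at 3 μmol/L compound over unstimulated control.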

SMILES	fold induction at 3 µM
O=C(O)c1cnn(-c2nc(O)c3c(cnn3CCC(c3ccccc3)c3ccccc3)n2)c1 [Example 134]	25
CC1(Cn2ncc3nc(-n4cc(C(=O)O)cn4)nc(O)c32)CCCCC1 [Example 157]	4
C[C@@H](c1ccc(-c2ccccc2F)cc1)n1ncc2nc(-n3cc(C(=O)O)cn3)nc(O)c21 [Example 112]	28
O=C(O)c1cnn(-c2nc(O)c3c(cnn3Cc3ccc(-c4cccc(C(F)(F)F)c4)cc3)n2)c1 [Example 65]	20
CC(C)(Cn1ncc2nc(-n3cc(C(=O)O)cn3)nc(O)c21)Oc1ccc(Cl)cc1 [Example 210]	19
Cc1nn(Cc2ccc(-c3ccccc3)cc2)c2c(O)nc(-n3cc(C(=O)O)cn3)nc12 [Example 228]	3.9
O=C(O)c1cnn(-c2nc(O)c3c(cnn3CC3(COc4ccc(Cl)cc4)CC3)n2)c1 [Example 198]	3.2
O=C(O)c1cnn(-c2nc(O)c3c(cnn3CCc3ccc(-c4ccccc4)cc3)n2)c1 [Example 130]	19
Cc1nn([C@@H](C)c2ccc(C(F)(F)F)cc2)c2c(O)nc(-n3cc(C(=O)O)cn3)nc12 [Example 446]	6.3
CCC(c1ccc(Cl)cc1)n1ncc2nc(-n3cc(C(=O)O)cn3)nc(O)c21 (single isomer, unassigned) [Example 323]	3.8
C[C@H]1CC[C@H](Cn2ncc3nc(-n4cc(C(=O)O)cn4)nc(O)c32)CC1 [Example 139]	1.6
Cc1nn(C[C@H]2CC[C@H](C(F)(F)F)CC2)c2c(O)nc(-n3cc(C(=O)O)cn3)nc12 [Example 474]	2.8
CCC(CC)Cn1nc(F)c2nc(-n3cc(C(=O)O)cn3)nc(O)c21 [Example 498]	2.7
O=C(O)c1cnn(-c2nc(O)c3c(cnn3Cc3ccc(-c4cccc(F)c4)cc3)n2)c1 [Example 63]	18
O=C(O)c1cnn(-c2nc(O)c3c(cnn3CC3CCN(c4ccc(C(F)(F)F)cc4)CC3)n2)c1 [Example 170]	19
O=C(O)c1cnn(-c2nc(O)c3c(cnn3CC3Cc4ccccc4C3)n2)c1 [Example 154]	5.4
C[C@@H](c1ccc2ccccc2c1)n1nc(F)c2nc(-n3cc(C(=O)O)cn3)nc(O)c21 [Example 442]	3.3
O=C(O)c1cnn(-c2nc(O)c3c(cnn3Cc3cc(C(F)(F)F)cc(Cl)c3F)n2)c1 [Example 4]	1.7
O=C(O)c1cnn(-c2nc(O)c3c(cnn3CCCOc3ccc4c(c3)CCCC4)n2)c1 [Example 188]	23
COc1cc(Cn2ncc3nc(-n4cc(C(=O)O)cn4)nc(O)c32)ccc1-c1ccccc1C [Example 98]	8.6
CC(C)(COc1ccc(Cl)cc1)Cn1ncc2nc(-n3cc(C(=O)O)cn3)nc(O)c21 [Example 197]	5.8
